The numbers were not newly measured in US7931880B2, “Production of silver sulfate grains using inorganic additives” (Eastman Kodak Company, priority 2007, dated 2011), which cites them from elsewhere.

One data set deals with Staphylococcus aureus. Conditions: in polymethylmethacrylate bone cement at 0.5% concentration.
The next data set concerns Pseudomonas aeruginosa. The settings on record: in polymethylmethacrylate bone cement at 0.5% concentration.
For a further data set, the system named is Escherichia coli. Conditions: in polymethylmethacrylate bone cement at 0.5% concentration.

For `[Cl][Ag]` [Silver chloride], the “inhibition of bacterial growth” value in the data set on Staphylococcus aureus, in the data set on Pseudomonas aeruginosa and in the data set with Escherichia coli was “significantly inhibit” in each case.

As for silver oxide, the “inhibition of bacterial growth” value in the data set on Staphylococcus aureus, in the data set on Pseudomonas aeruginosa and with Escherichia coli was “significantly inhibit” in each case.

For the molecule `[Na+].[Na+].[O]=[W](=[O])([O-])[O-]` [Na2WO4, sodium tungstate], the “Additive Silver Solubility” value (silver salt of the additive anion) is on record as 0.0070 g/100 mL. Moreover, the “Additive Sulfate Solubility” value (sulfate salt of the additive cation) is reported as 7.7 g/100 mL.

Consider `O=S(=O)([O-])[O-].[Ag+].[Ag+]` [silver sulfate], for which the “inhibition of bacterial growth” value with Staphylococcus aureus, in the data set with Pseudomonas aeruginosa and with Escherichia coli was “significantly inhibit” throughout.
